According to ChEMBL document CHEMBL5260847, “Current scenario of indole derivatives with potential anti-drug-resistant cancer activity” (Eur J Med Chem, 2020):
One block for each compound: values may come before it.

Experiments:
[1] = tested on: CCRF-CEM; assay: Cytotoxicity against drug-sensitive human CCRF-CEM cells assessed as reduction in cell viability measured after 72 hrs by MTT assay; format: functional, cell-based
[2] = tested on: NCI-H1650; assay: Cytotoxicity activity against drug-sensitive human NCI-H1650 cells assessed as reduction in cell viability measured after 72 hrs by MTT assay; format: functional, cell-based; details: NCI-H1650, 72 h
[3] = tested on: NCI-H460; assay: Antitumor activity in human NCI-H460 cells xenografted […] mouse at 40 mg/kg assessed as tumor growth inhibition; format: functional; set-up: scale not given: the % may be the effect or the level left
[4] = tested on: PC-9; assay: Antitumor activity in gefitinib-resistant human PC-9 cells xenografted Sprague-Dawley mouse at 40 mg/kg assessed as tumor growth inhibition administered for 5 days; format: functional; set-up: scale not given: the % may be the effect or the level left; details: time 5 day
[5] = tested on: NCI-H1650; assay: Antitumor activity in human NCI-H1650 cells xenografted Sprague-Dawley mouse at 40 mg/kg assessed as tumor growth inhibition administered for 5 days; format: functional; set-up: scale not given: the % may be the effect or the level left; details: time 5 day
[6] = tested on: NCI-H1975; assay: Antitumor activity in human NCI-H1975 cells xenografted Sprague-Dawley mouse at 40 mg/kg assessed as tumor growth inhibition administered for 5 days; format: functional; set-up: scale not given: the % may be the effect or the level left; details: time 5 day
[7] = tested on: SW-620; assay: Cytotoxicity against human SW620 cells assessed as reduction in cell viability measured after 48 hrs by SRB assay; format: functional, cell-based; details: SW-620, 48 h
[8] = tested on: SK-OV-3; assay: Cytotoxicity against human SK-OV-3 cells assessed as reduction in cell viability measured after 48 hrs by SRB assay; format: functional, cell-based; details: SK-OV-3, 48 h
[9] = tested on: DLD-1; assay: Cytotoxicity against human DLD-1 cells assessed as reduction in cell viability measured after 48 hrs by SRB assay; format: functional, cell-based; details: DLD-1, 48 h
[10] = tested on: MCF7; assay: Cytotoxicity against human MCF7 cells assessed as reduction in cell viability measured after 48 hrs by SRB assay; format: functional, cell-based; details: MCF7, 48 h
[11] = tested on: A549; assay: Antiproliferative activity against multi-drug resistant human A549 cells assessed as reduction in cell viability; format: functional, cell-based
[12] = tested on: Epidermoid carcinoma cell line; assay: Cytotoxicity activity against vincristine-resistant human Epidermoid carcinoma cell line assessed as reduction in cell growth; format: functional, cell-based
[13] = tested on: KB; assay: Cytotoxicity activity against vincristine-resistant human KB cells assessed as reduction in cell growth; format: functional, cell-based
[14] = Cytotoxicity against human hypertrophic scar Fibroblast cells assessed as inhibition of cell growth incubated for 2 hrs by MTT assay; format: toxicity, cell-based
[15] = Cytotoxicity against human HUVEC cells assessed as reduction in cell viability incubated for 2 hrs by MTT assay; format: toxicity, cell-based
[16] = tested on: K562/A02; assay: Antiproliferative activity against human K562/A02 cells assessed as reduction in cell viability measured after 2 days by MTT assay; format: functional, cell-based; details: K562/A02, 48 h
[17] = tested on: KB; assay: Antiproliferative activity against human KB cells assessed as reduction in cell growth incubated for 2 days by MTT assay; format: functional, cell-based; details: 48 h
[18] = tested on: K562; assay: Cytotoxicity activity against […] human K562 cells assessed as reduction in cell viability measured after 72 hrs by CCK-8 assay; format: functional, cell-based; details: K562, 72 h
[19] = tested on: K562; assay: Antiproliferative activity against human K562 cells assessed as reduction in cell growth measured after 24 hrs by CCK-8 assay; format: functional, cell-based; details: K562, 24 h
[20] = tested on: K562/Adr; assay: Cytotoxicity activity against doxorubicin-resistant human K562/Adr cells assessed as reduction in cell viability measured after 72 hrs by CCK-8 assay; format: functional, cell-based
[21] = tested on: HT-29; assay: Cytotoxicity activity against human HT-29 cells assessed as reduction in cell viability by SRB assay; format: functional, cell-based
[22] = tested on: PC-3; assay: Cytotoxicity activity against human PC-3 cells assessed as reduction in cell viability by MTT assay; format: functional, cell-based
[23] = Selectivity index, ratio of IC50 for antiproliferative activity against human MCF-10A cells to IC50 for antiproliferative activity against […] cells by MTT assay; format: toxicity, cell-based; details: MCF-10A cells and IEC-6 cells, read-out: Selectivity Index
[24] = tested on: MCF-10A; assay: Antiproliferative activity against human MCF-10A cells assessed as reduction in cell viability measured after 48 hrs by MTT assay; format: functional, cell-based
[25] = tested on: H69AR; assay: Antiproliferative activity against multi-drug resistant human NCI-H69AR assessed as reduction in cell viability; format: functional, cell-based
[26] = tested on: ZR-75-1; assay: Antiproliferative activity against human ZR-75-1 cells assessed as reduction in cell viability celltiter-Glo assay; format: functional, cell-based
[27] = tested on: HT-29; assay: Antiproliferative activity against human HT-29 cells assessed as reduction in cell viability celltiter-Glo assay; format: functional, cell-based
[28] = tested on: HT-29; assay: Antiproliferative activity against drug-sensitive human HT-29 cells assessed as reduction in cell viability by MTT assay; format: functional, cell-based
[29] = tested on: H69AR; assay: Antiproliferative activity against multidrug resistant human NCI-H69AR assessed as inhibition of cell proliferation by MTT assay; format: functional, cell-based
[30] = tested on: ZR-75-1; assay: Antiproliferative activity against multi-drug resistant human ZR-75-1 cells assessed as reduction in cell viability; format: functional, cell-based
[31] = tested on: PC-3; assay: Antitumor activity in human PC-3 cells xenografted immunodeficient ICR mouse assessed as reduction in tumor growth at 25 mg/kg, ip administered for 2 weeks; format: functional; set-up: scale not given: the % may be the effect or the level left
[32] = tested on: PC-3; assay: Antitumor activity in human PC-3 cells xenografted immunodeficient ICR mouse assessed as reduction in tumor growth at 0.5 mg/kg, ip administered for 2 weeks in presence of vinblastine; format: functional; set-up: scale not given: the % may be the effect or the level left
[33] = tested on: A549; assay: Antiproliferative activity against human A549 cells assessed as inhibition of cell growth measured after 72 hrs by SRB assay; format: functional, cell-based; details: A549, 72 h
[34] = Antiproliferative activity against human KB-VIN cells assessed as reduction in cell viability measured after 72 hrs by SRB assay; format: functional, cell-based; details: KBVIN
[35] = tested on: MCF7; assay: Antiproliferative activity against human MCF7 cells assessed as inhibition of cell proliferation incubated for 72 hrs by MTT assay; format: functional, cell-based; details: MCF7, 72 h
[36] = tested on: A549; assay: Cytotoxicity activity against human A549 cells assessed as reduction in cell viability by SRB assay; format: functional, cell-based

SMILES: CCc1c(CO)c(CO)c2n1Cc1c(c3ccccc3n1C)C2
IC50 [1]: 0.41 µM
IC50 [2]: 3.5 µM
Activity [3]: 65%
Activity [4]: 73%
Activity [5]: 30%
Activity [6]: 26%

SMILES: COc1ccc(C(=O)/C=C/c2nccc3c2[nH]c2ccccc23)cc1OC
IC50 [7]: 10 µM
IC50 [8]: 5 µM
IC50 [9]: 2.5 µM
IC50 [10]: 1.25 µM

IC50 [11]: 76.9 µM
SMILES: CCOC(=O)c1c(-c2ccc(F)cc2)oc2ccc(OCCCCCCN3C(=O)C(=O)c4cc(OC)ccc43)cc12

IC50 [11]: 47.6 µM
SMILES: CCOC(=O)c1c(-c2ccccc2)oc2ccc(OCCCCCCN3C(=O)C(=O)c4ccccc43)cc12

SMILES: CC[C@@]12CC(C(=O)OC)=C3N=C4C(=CC(=O)C(O)=C4OC)[C@@]34CCN([C@@H]3c5cc6c(cc5O[C@@H]3[C@H]1O)NC1=C(C(=O)OC)C[C@]3(CC)[C@@H]5O[C@@H]5CN5CC[C@@]16[C@@H]53)[C@H]42
IC50 [12]: 2.9 µM
IC50 [13]: 0.01 µM

IC50 [16]: 4.71 µM
IC50 [17]: 1.01 µM
SMILES: COc1ccc2[nH]cc(C(=O)C(=O)N[C@@H]3c4cc5c(cc4[C@@H](c4cc(OC)c(OC)c(OC)c4)[C@H]4C(=O)OC[C@@H]43)OCO5)c2c1
IC50 at 2 h [14]: 26.1 µM
IC50 at 2 h [15]: 15.1 µM

IC50 [19]: 0.043 µM
SMILES: COc1cc([C@@H]2c3cc4c(cc3[C@H](OC(=O)c3ccc5cc[nH]c5c3)[C@H]3COC(=O)[C@H]23)OCO4)cc(OC)c1OC
IC50 [18]: 0.019 µM
IC50 [20]: 0.245 µM

SMILES: C/C=C1/CN2[C@H]3C[C@@H]1C(CO)[C@@H]2Cc1c3n(C)c2cc(C[C@H]3[C@@H]4C[C@H]5c6c(c7ccccc7n6C)C[C@@H]([C@@H]4CO[C@]3(C)OC)N5C)c(OC)cc12 (stereo not given in full)
IC50 [21]: 0.02 µM

SMILES: C/C=C1\CN2CC[C@@]34c5c(ccc6c5OC5OC[C@@H]7[C@@H](C[C@H]8c9c(c%10ccccc%10n9C)C[C@@H]7N8C)[C@@H]5[C@@H]6C)N(C)[C@H]3[C@@H]2C[C@H]1[C@@H]4C(=O)OC (stereo not given in full)
IC50 [21]: 0.3 µM
IC50 [22]: 7.2 µM

IC50 [27]: 2.75 µM
IC50 [28]: 5.87 µM
SMILES: O=C1Nc2ccc(Cl)cc2/C1=N/N=C/c1ccn[nH]1
selectivity ratio [23]: 1.6
IC50 [24]: 3.42 µM
IC50 [25]: 16.6 µM
IC50 [26]: 1.37 µM
IC50 [29]: 16 µM
IC50 [30]: 1.37 µM

SMILES: CC1(C)C([C@@H](Cc2c[nH]c3ccccc23)C(=O)OCc2ccccc2)C(=O)[C@@H]2Cc3c([nH]c4ccccc34)CN21 (stereo not given in full)
Activity [31]: 40%
Activity [32]: 50%

IC50 [33]: 3.1 µM
IC50 [35]: 12.9 µM
SMILES: CC[C@@H]1C[C@@H]2CN3CCc4c([nH]c5c([C@H]6CC7[C@]8(O[C@@H]8C)[C@@H]8OC[C@@]7(C(=O)OC)[C@H](Cc7c6[nH]c6ccccc76)N8C)c(OC)ccc45)[C@@](C(=O)OC)(C2)[C@@H]13
IC50 [34]: 2.6 µM
IC50 [36]: 4.8 µM

SMILES: C/C=C1\CN(C)[C@H]2Cc3c([nH]c4ccccc34)[C@@H](c3ccc4[nH]c5c(c4c3OC)CCN3C[C@H]4CC[C@H]5[C@H]3[C@@H]4CC)C[C@H]1[C@@H]2C(=O)OC
IC50 [36]: 6.8 µM
IC50 [21]: 0.93 µM
